This is an account of results in US20220257577A1, “EZH2 INHIBITION IN COMBINATION THERAPIES FOR THE TREATMENT OF CANCERS” (Constellation Pharmaceuticals, Inc., priority 2019, published 2022).

As a reminder, the EC50 is the concentration at which the effect is half-maximal.

Experiment [1] deals with T1, EZH2 (PRC2) (Homo sapiens, UniProt Q15910). Put plainly: Kinetic assays characterising binding to PRC2. The note with it: from kinetic assays. How it is done: In biochemical assays, Compound 1 suppresses catalytic activity of wild-type and Y641N mutant EZH2-containing PRC2 complex, as well as EZH1-containing PRC2 complex, with half-maximal inhibitory concentrations (IC50) values of 0.02 and 0.03 nM for wild-type and Y641N mutant EZH2, respectively, and 0.06 nM for EZH1. See e.g., PCT/US2019/027932. […] Based-upon the kinetic analysis it was determined that Compound 1 binds to PRC2 with a long residence time (approximately 101 days). See e.g., PCT/US2019/027932.
T1 sequence (Q15910 whole entry): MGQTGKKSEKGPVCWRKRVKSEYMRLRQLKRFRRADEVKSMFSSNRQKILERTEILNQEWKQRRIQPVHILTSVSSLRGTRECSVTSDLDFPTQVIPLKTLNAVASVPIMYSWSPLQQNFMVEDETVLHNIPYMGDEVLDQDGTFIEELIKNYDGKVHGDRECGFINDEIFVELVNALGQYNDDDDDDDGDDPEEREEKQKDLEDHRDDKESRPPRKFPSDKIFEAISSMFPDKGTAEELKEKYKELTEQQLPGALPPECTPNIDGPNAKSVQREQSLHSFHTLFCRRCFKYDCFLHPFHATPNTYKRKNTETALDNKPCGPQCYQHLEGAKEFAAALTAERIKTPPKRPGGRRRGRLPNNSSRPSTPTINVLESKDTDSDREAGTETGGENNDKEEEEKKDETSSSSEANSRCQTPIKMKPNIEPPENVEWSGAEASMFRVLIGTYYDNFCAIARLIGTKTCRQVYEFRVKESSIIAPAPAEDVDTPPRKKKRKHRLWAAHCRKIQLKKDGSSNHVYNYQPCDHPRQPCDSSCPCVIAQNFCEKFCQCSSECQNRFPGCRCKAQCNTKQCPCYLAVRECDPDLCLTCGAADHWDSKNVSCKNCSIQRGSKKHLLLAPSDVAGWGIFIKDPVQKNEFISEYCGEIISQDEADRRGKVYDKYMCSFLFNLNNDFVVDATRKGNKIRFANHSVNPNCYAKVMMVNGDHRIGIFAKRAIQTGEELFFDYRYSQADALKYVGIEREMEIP
T1 sequence (O75530 whole entry partner): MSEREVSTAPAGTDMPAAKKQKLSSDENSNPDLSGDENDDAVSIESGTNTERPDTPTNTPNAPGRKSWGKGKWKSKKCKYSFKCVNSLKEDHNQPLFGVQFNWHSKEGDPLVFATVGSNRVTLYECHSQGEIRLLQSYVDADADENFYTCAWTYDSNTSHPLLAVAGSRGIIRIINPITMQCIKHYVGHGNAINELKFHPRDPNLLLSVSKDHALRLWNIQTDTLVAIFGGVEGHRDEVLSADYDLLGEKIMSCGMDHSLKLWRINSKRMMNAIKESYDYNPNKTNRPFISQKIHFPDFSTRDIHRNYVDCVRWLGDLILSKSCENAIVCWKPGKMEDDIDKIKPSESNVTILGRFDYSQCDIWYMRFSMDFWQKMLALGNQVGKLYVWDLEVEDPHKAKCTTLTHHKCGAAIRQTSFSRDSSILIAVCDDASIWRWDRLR
T1 sequence (Q15022 whole entry partner): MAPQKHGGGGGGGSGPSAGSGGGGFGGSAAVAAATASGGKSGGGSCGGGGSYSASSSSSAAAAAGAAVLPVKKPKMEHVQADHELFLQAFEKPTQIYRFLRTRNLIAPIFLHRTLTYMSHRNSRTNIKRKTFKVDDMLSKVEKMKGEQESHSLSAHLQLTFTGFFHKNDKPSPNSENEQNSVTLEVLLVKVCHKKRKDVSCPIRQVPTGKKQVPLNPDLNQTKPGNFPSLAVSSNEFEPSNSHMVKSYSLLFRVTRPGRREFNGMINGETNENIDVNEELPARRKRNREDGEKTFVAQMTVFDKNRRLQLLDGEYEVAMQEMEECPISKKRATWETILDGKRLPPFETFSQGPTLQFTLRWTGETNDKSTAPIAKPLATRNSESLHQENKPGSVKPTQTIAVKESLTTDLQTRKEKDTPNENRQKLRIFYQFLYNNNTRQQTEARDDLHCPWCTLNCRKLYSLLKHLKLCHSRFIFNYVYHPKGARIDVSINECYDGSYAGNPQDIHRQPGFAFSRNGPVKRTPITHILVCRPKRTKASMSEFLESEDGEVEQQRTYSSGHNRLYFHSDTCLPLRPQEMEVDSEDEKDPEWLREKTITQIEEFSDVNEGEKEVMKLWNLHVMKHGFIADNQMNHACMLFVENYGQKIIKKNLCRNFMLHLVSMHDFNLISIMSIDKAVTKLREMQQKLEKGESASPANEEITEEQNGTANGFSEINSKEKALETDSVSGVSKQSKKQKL
T1 sequence (Q09028 whole entry partner): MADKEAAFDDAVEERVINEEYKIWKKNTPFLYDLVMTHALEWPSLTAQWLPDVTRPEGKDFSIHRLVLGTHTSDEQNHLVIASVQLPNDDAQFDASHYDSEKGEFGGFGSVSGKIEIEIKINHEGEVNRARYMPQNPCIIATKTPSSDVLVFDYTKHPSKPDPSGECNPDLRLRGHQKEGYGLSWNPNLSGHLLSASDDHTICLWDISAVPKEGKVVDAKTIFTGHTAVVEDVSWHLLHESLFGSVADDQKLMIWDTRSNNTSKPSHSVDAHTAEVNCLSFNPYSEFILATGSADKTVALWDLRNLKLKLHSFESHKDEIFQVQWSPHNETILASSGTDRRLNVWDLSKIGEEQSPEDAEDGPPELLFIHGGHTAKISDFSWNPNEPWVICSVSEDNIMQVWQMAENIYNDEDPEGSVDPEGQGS

Experiment [2] has as its system H3K27me3 in 639V bladder cancer cell line. Nature of the experiment: Global H3K27me3 intracellular levels, 639V. Type of experiment: cell-based. The note with it: Homo sapiens, 72 h, Day 3, read-out: EC50, reduction of global H3K27me3 levels.
Experiment [3] has as its system H3K27me3 in HT1197 bladder cancer cell line. Put plainly: Global H3K27me3 intracellular levels, HT1197. Type of experiment: cell-based. The note with it: Homo sapiens, 72 h; HT1197, Day 3; read-out: EC50, reduction of global H3K27me3 levels.
Experiment [4] concerns H3K27me3 in ovarian cancer TOV21G cell line. Put plainly: Global H3K27me3 intracellular levels, TOV21G. Type of experiment: cell-based. The settings on record: Homo sapiens, 72 h, Day 3, read-out: EC50, reduction of global H3K27me3 levels.
For experiment [5], the system named is gene expression in bladder cancer cell lines. Nature of the experiment: RNA-sequencing of bladder cancer cell lines. Type of experiment: cell-based. The settings on record: treatment for 4 days. The text has this: Reduction in H3K27me3 levels result in changes in gene expression. RNA-sequencing of bladder cancer cell lines after treatment with Compound 1 for 4 days results in significant changes in the expression levels of multiple genes. […] The increase in gene expression is both dose and time dependent, with increasing expression observed at higher concentrations of Compound 1 and at later timepoints. This contrasts with reductions of H3K27me3 as methyl mark changes were observed after 1 day of Compound 1 treatment. […] See Yang X, Karuturi R K, Sun F, et al. CDKN1C (p57) is a direct target of EZH2 and suppressed by multiple epigenetic mechanisms in breast cancer cells. PLoS One. 2009; 4(4):e5011. Low expression of CDKN1C is seen in advanced bladder and breast cancers and is correlated with poor prognosis. See Yang above and Hoffmann M J, Florl A R, Seifert H H, et al. Multiple mechanisms downregulate CDKN1C in human bladder cancer. Int J Cancer. 2005 Apr. 10; 114(3):406-13.

For experiment [6], the system named is A2780 (ovarian cancer) cell lines, A2780-P and A2780-CR. Nature of the experiment: Antiproliferative activity in A2780 ovarian cancer cell lines. Type of experiment: cell-based. The note with it: cisplatin resistant A2780-CR versus parental A2780-P; FIG. 1A/1B. How it is done: (§1) Data shown are mean cell viability±standard error of the mean (SEM), n=2-3 and are representative of duplicate independent experiments.
(§2) Representative of duplicate independent experiments; mean±SD shown.
(§3) The sensitivity of multiple solid tumor cancer cell lines to the antiproliferative activity of Compound 1 with and without cisplatin was evaluated. […] Combination treatment with Compound 1 and cisplatin, however, led to greater than 50% reduction in growth.

Experiment [7] relates to HT1376 (bladder cancer) cell lines, HT1376-DMF and HT1376-CR. Nature of the experiment: Antiproliferative activity in HT1376 bladder cancer cell lines. The format is cell-based. The settings on record: cisplatin resistant HT1376-CR versus age-matched DMF control HT1376-DMF; FIG. 1A/1B. How it is done:
as §1, §2, §3

A further experiment relates to HT1376 tumors. Put plainly: Antitumor effect in HT1376 tumors. The format is in vivo. The settings on record: HT1376 tumors in CB17 SCID mice; FIG. 4. The text has this: FIG. 4 illustrates the antitumor effect of Compound 1, cisplatin, and the combination of both in HT1376 tumors in CB17 SCID mice. Data shown are mean tumor size±SEM, n=6. PO=oral administration, IV=intravenous administration, QD=once per day, QW=once per week.

For experiment [8], the target named is wild-type EZH2-containing PRC2 complex (Homo sapiens, UniProt Q15910). The settings on record: see PCT/US2019/027932, read-out: half-maximal inhibitory concentration (IC50), catalytic activity; cited from earlier work.
wild-type EZH2-containing PRC2 complex, sequence (Q15910 whole entry): as the sequence (Q15910 whole entry) above
wild-type EZH2-containing PRC2 complex, sequence (O75530 whole entry partner): as the sequence (O75530 whole entry partner) above
wild-type EZH2-containing PRC2 complex, sequence (Q15022 whole entry partner): as the sequence (Q15022 whole entry partner) above
wild-type EZH2-containing PRC2 complex, sequence (Q09028 whole entry partner): as the sequence (Q09028 whole entry partner) above
In experiment [9] the target is Y641N mutant EZH2-containing PRC2 complex (Homo sapiens, UniProt Q15910, Y641N). The settings on record: see PCT/US2019/027932, read-out: half-maximal inhibitory concentration (IC50), catalytic activity; cited from earlier work.
Y641N mutant EZH2-containing PRC2 complex, sequence (Q15910 whole entry Y641N): as the sequence (Q15910 whole entry) above, with Y641N counted along it
Y641N mutant EZH2-containing PRC2 complex, sequence (O75530 whole entry partner): as the sequence (O75530 whole entry partner) above
Y641N mutant EZH2-containing PRC2 complex, sequence (Q15022 whole entry partner): as the sequence (Q15022 whole entry partner) above
Y641N mutant EZH2-containing PRC2 complex, sequence (Q09028 whole entry partner): as the sequence (Q09028 whole entry partner) above
For experiment [10], the target named is EZH1-containing PRC2 complex (Homo sapiens, UniProt Q92800). The settings on record: see PCT/US2019/027932, read-out: half-maximal inhibitory concentration (IC50), catalytic activity; cited from earlier work.
EZH1-containing PRC2 complex, sequence (Q92800 whole entry): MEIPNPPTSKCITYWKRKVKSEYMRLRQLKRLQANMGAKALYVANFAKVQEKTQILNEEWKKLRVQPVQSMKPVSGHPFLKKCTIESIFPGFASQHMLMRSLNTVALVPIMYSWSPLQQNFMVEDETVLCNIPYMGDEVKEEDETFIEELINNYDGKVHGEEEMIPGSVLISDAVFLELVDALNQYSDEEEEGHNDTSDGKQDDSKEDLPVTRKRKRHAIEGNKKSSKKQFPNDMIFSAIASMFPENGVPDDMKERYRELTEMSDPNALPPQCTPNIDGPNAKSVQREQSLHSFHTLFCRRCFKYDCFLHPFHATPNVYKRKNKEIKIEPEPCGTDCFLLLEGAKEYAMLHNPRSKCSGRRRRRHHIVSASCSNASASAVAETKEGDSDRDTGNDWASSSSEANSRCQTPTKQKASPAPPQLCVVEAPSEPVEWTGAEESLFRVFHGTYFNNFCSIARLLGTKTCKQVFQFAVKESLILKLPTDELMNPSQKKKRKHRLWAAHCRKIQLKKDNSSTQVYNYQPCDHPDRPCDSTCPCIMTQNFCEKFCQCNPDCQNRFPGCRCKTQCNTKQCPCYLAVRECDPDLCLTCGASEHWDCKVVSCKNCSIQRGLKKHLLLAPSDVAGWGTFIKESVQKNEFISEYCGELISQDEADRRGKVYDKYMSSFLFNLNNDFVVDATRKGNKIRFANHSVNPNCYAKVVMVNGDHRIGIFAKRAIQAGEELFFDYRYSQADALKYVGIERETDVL
EZH1-containing PRC2 complex, sequence (O75530 whole entry partner): as the sequence (O75530 whole entry partner) above
EZH1-containing PRC2 complex, sequence (Q15022 whole entry partner): as the sequence (Q15022 whole entry partner) above
EZH1-containing PRC2 complex, sequence (Q09028 whole entry partner): as the sequence (Q09028 whole entry partner) above
The target in experiment [11] is T1, EZH2 (PRC2). The settings on record: binding to PRC2 complex, see PCT/US2019/027932, cited from earlier work.
Experiment [12] relates to H3K27me3 in HeLa (wild-type EZH2-containing cervical cancer cell line). The settings on record: after 4 days of treatment, see PCT/US2019/027932, read-out: EC50, reduction of global H3K27me3 levels; cited from earlier work.

Like-named read-outs stand apart in the source and are kept apart here.

Turning to `COC1CN(C2CCC(C3(C)Oc4c(Cl)cc(C(=O)NCc5c(SC)cc(C)[nH]c5=O)c(C)c4O3)CC2)C1` (single isomer, unassigned) [Compound 1, 7-chloro-2-(4-(3-methoxyazetidin-1-yl)cyclohexyl)-2,4-dimethyl-N-((6-methyl-4-(methylthio)-2-oxo-1,2-dihydropyridin-3-yl)methyl)benzo[d][1,3]dioxole-5-carboxamide], the “selectivity for EZH2 over EZH1” value at EZH2 (PRC2) [1] was “approximately 70 fold”. In addition, the concentration giving a half-maximal response (EC50) in experiment [2] was 0.09 nM; in experiment [3] it was 0.14 nM; in experiment [4], 0.26 nM; in [12], 0.4 nM. Further, in experiment [5], the “CDKN1C (p57, Kip2) gene expression” value is “highly upregulated”. Moreover, the “sensitivity (cell viability) to single treatment” value in experiment [6] and in experiment [7] was “strongly sensitive” each time. Besides, the tumor growth entry with HT1376 tumors is “effective in reducing tumor growth”. Besides, the IC50 in [8] was 0.02 nM; in [9], 0.03 nM; in experiment [10], 0.06 nM. Further, the residence time result is recorded as “approximately 101 days” on EZH2 (PRC2) [11] and around 101 days at EZH2 (PRC2) [11] (listed as 7-chloro-2-(4-(3-methoxyazetidin-1-yl)cyclohexyl)-2,4-dimethyl-N-(6-methyl-4-(m))).
Turning to `N.N.[Cl][Pt][Cl]` [cisplatin, reference compound], the “sensitivity (cell viability) to single treatment” value in experiment [6] and in experiment [7] was “less sensitive” each time.
